# The OligoGym collection
# HELM strings list units from the 5' end as sugar, base in round brackets, then linkage (d deoxyribose, r ribose, m 2'-O-methyl, p phosphodiester). Strings are as the collection lists them; they lack the last nucleoside at the 3' end of the tested compound. [moe] = 2'-O-(2-methoxyethyl) (MOE); [sp] = phosphorothioate linkage; [m5C] = 5-methylcytosine
# Target: PRNP
# Assay: mouse, dose not given
# Conditions: ASO
row,Substance,3 h FOB score [score 0-7]
1,RNA1{[moe](T)[sp].[moe](G)p.[moe](G)p.[moe](T)p.[moe](T)[sp].d(A)[sp].d(G)[sp].d([m5C])[sp].d(T)[sp].d(T)[sp].d(T)[sp].d(T)[sp].d(T)[sp].d(T)[sp].d(T)[sp].[moe]([m5C])p.[moe](A)p.[moe]([m5C])[sp].[moe](T)}$$$$ (last 3' nucleoside missing),6.25
2,RNA1{[moe](T)[sp].[moe](G)p.[moe](G)p.[moe](T)p.[moe](T)[sp].d(A)[sp].d(T)[sp].d(T)[sp].d(T)[sp].d(T)[sp].d(A)[sp].d(A)[sp].d(T)[sp].d(A)[sp].d(G)[sp].[moe](A)p.[moe](T)p.[moe](G)[sp].[moe](T)}$$$$ (last 3' nucleoside missing),1
3,RNA1{[moe](T)[sp].[moe](G)p.[moe](G)p.[moe](T)p.[moe](T)[sp].d(A)[sp].d([m5C])[sp].d(A)[sp].d(T)[sp].d(A)[sp].d(A)[sp].d(T)[sp].d(G)[sp].d(T)[sp].d(T)[sp].[moe]([m5C])p.[moe](A)p.[moe](T)[sp].[moe](T)}$$$$ (last 3' nucleoside missing),4
4,RNA1{[moe](T)[sp].[moe](G)p.[moe](G)p.[moe]([m5C])p.[moe](A)[sp].d([m5C])[sp].d(T)[sp].d(T)[sp].d(T)[sp].d([m5C])[sp].d(T)[sp].d(T)[sp].d(T)[sp].d(T)[sp].d(T)[sp].[moe](A)p.[moe](T)p.[moe](T)[sp].[moe](T)}$$$$ (last 3' nucleoside missing),0
5,RNA1{[moe](T)[sp].[moe](G)p.[moe](G)p.[moe]([m5C])p.[moe](A)p.[moe]([m5C])p.d(T)[sp].d(T)[sp].d(T)[sp].d([m5C])[sp].d(T)[sp].d(T)[sp].d(T)[sp].d(T)[sp].d(T)[sp].d(A)[sp].[moe](T)p.[moe](T)[sp].[moe](T)}$$$$ (last 3' nucleoside missing),0.25
6,RNA1{[moe](T)[sp].[moe](G)p.[moe](G)p.[moe]([m5C])p.[moe](T)[sp].d(T)[sp].d(A)[sp].d([m5C])[sp].d(T)[sp].d([m5C])[sp].d(G)[sp].d(G)[sp].d([m5C])[sp].d(T)[sp].d(T)[sp].[moe](G)p.[moe](T)p.[moe](T)[sp].[moe]([m5C])}$$$$ (last 3' nucleoside missing),3.75
7,RNA1{[moe](T)[sp].[moe](G)p.[moe](T)p.[moe](A)p.[moe](G)[sp].d(A)[sp].d(A)[sp].d(G)[sp].d([m5C])[sp].d(A)[sp].d(T)[sp].d(T)[sp].d(G)[sp].d(T)[sp].d(A)[sp].[moe]([m5C])p.[moe]([m5C])p.[moe](T)[sp].[moe]([m5C])}$$$$ (last 3' nucleoside missing),4.5
8,RNA1{[moe](T)[sp].[moe](G)p.[moe](T)p.[moe](G)p.[moe](A)[sp].d([m5C])[sp].d(A)[sp].d(A)[sp].d(T)[sp].d(A)[sp].d(T)[sp].d(T)[sp].d(T)[sp].d(A)[sp].d([m5C])[sp].[moe](T)p.[moe]([m5C])p.[moe](T)[sp].[moe](T)}$$$$ (last 3' nucleoside missing),2.25
9,RNA1{[moe](T)[sp].[moe](G)p.[moe](T)p.[moe](G)p.[moe](T)[sp].d([m5C])[sp].d(A)[sp].d(T)[sp].d(A)[sp].d(A)[sp].d(T)[sp].d(T)[sp].d(T)[sp].d(T)[sp].d([m5C])[sp].[moe](T)p.[moe](T)p.[moe](A)[sp].[moe](G)}$$$$ (last 3' nucleoside missing),1
10,RNA1{[moe](T)[sp].[moe](G)p.[moe](T)p.[moe](G)p.[moe]([m5C])[sp].d(T)[sp].d(T)[sp].d(A)[sp].d(T)[sp].d(T)[sp].d(A)[sp].d(T)[sp].d(T)[sp].d([m5C])[sp].d(A)[sp].[moe](T)p.[moe](G)p.[moe](T)[sp].[moe](T)}$$$$ (last 3' nucleoside missing),0
11,RNA1{[moe](T)[sp].[moe](G)p.[moe](T)p.[moe](G)p.[moe]([m5C])[sp].d(T)[sp].d(T)[sp].d(T)[sp].d(T)[sp].d([m5C])[sp].d([m5C])[sp].d(T)[sp].d(T)[sp].d(T)[sp].d([m5C])[sp].[moe](A)p.[moe](G)p.[moe](A)[sp].[moe](T)}$$$$ (last 3' nucleoside missing),0.75
12,RNA1{[moe](T)[sp].[moe](G)p.[moe](T)p.[moe](T)p.[moe](A)[sp].d(T)[sp].d(T)[sp].d(T)[sp].d([m5C])[sp].d([m5C])[sp].d(T)[sp].d([m5C])[sp].d(T)[sp].d(G)[sp].d(T)[sp].[moe](G)p.[moe]([m5C])p.[moe](T)[sp].[moe](T)}$$$$ (last 3' nucleoside missing),3.75
13,RNA1{[moe](T)[sp].[moe](G)p.[moe](T)p.[moe](T)p.[moe](T)[sp].d(G)[sp].d(T)[sp].d(T)[sp].d(T)[sp].d([m5C])[sp].d(T)[sp].d(T)[sp].d([m5C])[sp].d([m5C])[sp].d(A)[sp].[moe](T)p.[moe](T)p.[moe](G)[sp].[moe]([m5C])}$$$$ (last 3' nucleoside missing),1
14,RNA1{[moe](T)[sp].[moe](G)p.[moe](T)p.[moe]([m5C])p.[moe](A)[sp].d(G)[sp].d(T)[sp].d(T)[sp].d(T)[sp].d(T)[sp].d(T)[sp].d([m5C])[sp].d([m5C])[sp].d([m5C])[sp].d([m5C])[sp].[moe](A)p.[moe]([m5C])p.[moe](A)[sp].[moe](T)}$$$$ (last 3' nucleoside missing),0
15,RNA1{[moe](T)[sp].[moe](G)p.[moe](T)p.[moe]([m5C])p.[moe](A)p.[moe](G)p.d(T)[sp].d(T)[sp].d(T)[sp].d(T)[sp].d(T)[sp].d([m5C])[sp].d([m5C])[sp].d([m5C])[sp].d([m5C])[sp].d(A)[sp].[moe]([m5C])p.[moe](A)[sp].[moe](T)}$$$$ (last 3' nucleoside missing),0.5
16,RNA1{[moe](T)[sp].[moe](G)p.[moe](T)p.[moe]([m5C])p.[moe](A)p.d(G)[sp].d(T)[sp].d(T)[sp].d(T)[sp].d(T)[sp].d(T)[sp].d([m5C])[sp].d([m5C])[sp].d([m5C])[sp].[moe]([m5C])[sp].[moe](A)p.[moe]([m5C])p.[moe](A)}$$$$ (last 3' nucleoside missing),0
17,RNA1{[moe](T)[sp].[moe](G)p.[moe](T)p.[moe]([m5C])p.[moe](A)p.d(T)[sp].d(A)[sp].d(A)[sp].d(T)[sp].d(T)[sp].d(T)[sp].d(T)[sp].d([m5C])[sp].d(T)[sp].[moe](T)p.[moe](A)p.[moe](G)[sp].[moe]([m5C])}$$$$ (last 3' nucleoside missing),0
18,RNA1{[moe](T)[sp].[moe](G)p.[moe](T)p.[moe]([m5C])p.d(A)[sp].d(G)[sp].d(T)[sp].d(T)[sp].d(T)[sp].d(T)[sp].d(T)[sp].d([m5C])[sp].d([m5C])[sp].d([m5C])[sp].[moe]([m5C])p.[moe](A)p.[moe]([m5C])p.[moe](A)[sp].[moe](T)}$$$$ (last 3' nucleoside missing),0
19,RNA1{[moe](T)[sp].[moe](G)p.[moe]([m5C])p.[moe](A)p.[moe]([m5C])[sp].d(A)[sp].d([m5C])[sp].d(T)[sp].d(G)[sp].d(A)[sp].d([m5C])[sp].d([m5C])[sp].d(A)[sp].d(T)[sp].d(T)[sp].[moe](T)p.[moe](T)p.[moe](T)[sp].[moe](T)}$$$$ (last 3' nucleoside missing),1
20,RNA1{[moe](T)[sp].[moe](G)p.[moe]([m5C])p.[moe](T)p.[moe](T)[sp].d(A)[sp].d(T)[sp].d(T)[sp].d(A)[sp].d(T)[sp].d(T)[sp].d([m5C])[sp].d(A)[sp].d(T)[sp].d(G)[sp].[moe](T)p.[moe](T)p.[moe]([m5C])[sp].[moe](T)}$$$$ (last 3' nucleoside missing),0
21,RNA1{[moe](T)[sp].[moe](G)p.[moe]([m5C])p.[moe]([m5C])p.[moe](A)[sp].d([m5C])[sp].d(A)[sp].d(T)[sp].d(A)[sp].d(T)[sp].d(A)[sp].d(G)[sp].d(G)[sp].d(G)[sp].d(T)[sp].[moe]([m5C])p.[moe]([m5C])p.[moe](T)[sp].[moe](T)}$$$$ (last 3' nucleoside missing),3
22,RNA1{[moe](T)[sp].[moe](T)p.[moe](A)p.[moe]([m5C])p.[moe](T)[sp].d([m5C])[sp].d(G)[sp].d(G)[sp].d([m5C])[sp].d(T)[sp].d(T)[sp].d(G)[sp].d(T)[sp].d(T)[sp].d([m5C])[sp].[moe]([m5C])p.[moe](A)p.[moe]([m5C])[sp].[moe](T)}$$$$ (last 3' nucleoside missing),2.5
23,RNA1{[moe](T)[sp].[moe](T)p.[moe](G)p.[moe](T)p.[moe](G)[sp].d(A)[sp].d([m5C])[sp].d(A)[sp].d(A)[sp].d(T)[sp].d(A)[sp].d(T)[sp].d(T)[sp].d(T)[sp].d(A)[sp].[moe]([m5C])p.[moe](T)p.[moe]([m5C])[sp].[moe](T)}$$$$ (last 3' nucleoside missing),0
24,RNA1{[moe](T)[sp].[moe](T)p.[moe](G)p.[moe]([m5C])p.[moe](A)[sp].d(G)[sp].d(G)[sp].d(T)[sp].d(A)[sp].d(A)[sp].d(G)[sp].d(T)[sp].d(T)[sp].d([m5C])[sp].d(T)[sp].[moe]([m5C])p.[moe](A)p.[moe](G)[sp].[moe](G)}$$$$ (last 3' nucleoside missing),5.25
25,RNA1{[moe](T)[sp].[moe](T)p.[moe](T)p.[moe](A)p.[moe]([m5C])[sp].d(T)[sp].d(T)[sp].d(T)[sp].d(T)[sp].d([m5C])[sp].d(A)[sp].d(G)[sp].d([m5C])[sp].d(T)[sp].d(G)[sp].[moe]([m5C])p.[moe]([m5C])p.[moe](T)[sp].[moe](T)}$$$$ (last 3' nucleoside missing),6
26,RNA1{[moe](T)[sp].[moe](T)p.[moe](T)p.[moe](G)p.[moe](A)[sp].d(T)[sp].d(T)[sp].d(T)[sp].d([m5C])[sp].d(A)[sp].d(A)[sp].d(G)[sp].d(T)[sp].d([m5C])[sp].d([m5C])[sp].[moe]([m5C])p.[moe](A)p.[moe](G)[sp].[moe](A)}$$$$ (last 3' nucleoside missing),2.25
